These are literature values, as cited in patent publication US20170008834A1, “FUMARATE COMPOUNDS, PHARMACEUTICAL COMPOSITIONS THEREOF, AND METHODS OF USE” (priority 2015, published 2017).

Consider `COC(=O)/C=C/C(=O)OC` [DMF, dimethylfumarate], for which the aqueous solubility result is “poor”.
